Experimental data as given in PMC9067978, “Design, synthesis, and molecular docking studies of novel pomalidomide-based PROTACs as potential anti-cancer agents targeting EGFR^WT and EGFR^T790M” (Journal of Enzyme Inhibition and Medicinal Chemistry, 2022).
Entries after “also recorded” stand apart in the source; their conditions may differ.

Experiments:
HepG-2 [1] = test: Annexin V/propidium iodide apoptosis assay, HepG-2; assay type: cell-based, human; conditions: 3.02 µM, 24 hours
Method: The double staining Annexin V/propidium iodide technique was performed to assess the mechanism of cell death and apoptosis-inducing activity.[46] […] As shown in (Figure 7 (A and B).
The negative control was chosen to be DMSO. The cells were then collected and washed twice in PBS. The cells were separated using centrifugation. An apoptosis detection kit (BD Biosciences, SanJose, CA) was used in this investigation. Following the manufacturer’s instructions, the cells were dyed with Annexin V-FITC and propidium iodide (PI) in the binding buffer for 20 minutes at 37 °C in the darkness. A flow cytometer was used to assess the binding of Annexin V-FITC and PI. The frequencies in all quadrants were investigated using the Flowjo program.[53]

MCF-7 [2] = test: DNA-flow cytometric cell cycle analysis, MCF-7; assay type: cell-based, human; conditions: 3.92 µM, 24 hours
Method: (§1) Then, the influence of compound 16 on the cell cycle profile was then investigated.
(§2) The cells that had been tested were then trypsinized and washed in sterilised phosphate buffer saline (PBS). The collected cells were fixed with cold ethanol (100%, 1.5 ml). According to the manufacturer’s instructions, a Cycle TESTTM PLUS DNA Reagent Kit was used to dye the cells (BD Biosciences, San Jose, CA). A flow cytometer was used to assess cell-cycle distribution.[52]

Akt phosphorylation = test: Western blotting, Akt phosphorylation in A549 cells; assay type: cell-based, human; conditions: A549 cells, 0.1, 0.3 and 1 µM, erlotinib for comparison
Method: (§3) At a concentration of 100 nM, the time-dependent degradation activities of compounds 15–21 were also examined (Figure 5(A)).
(§4) Figure 5. (A) EGFR time-dependent degradation by compound 16 in A549 cell lines. Cells were treated with100 nM of 15–21 for indicated time points. Western blotting was used to evaluate EGFR protein, and densitometry was used to measure EGFR degradation, which was adjusted to the density of β-actin protein (n ¼2). (B) Compounds 15 and 16 have EGFR degradation and phosphorylation inhibitory action in A549 cells. The cells were exposed to concentrations of 0.1, 0.3, and 1 µM. Erlotinib were utilised for comparison. […]
(§5) Cells were seeded in 6-well plates at 1 × 10^6 per well, incubated at 37 °C with 5% CO2 for 24 h before drug exposure. […] The results were detected by an enhanced chemiluminescence system (Mill-pore). […]

EGFR phosphorylation = test: Western blotting, EGFR phosphorylation in A549 cells; assay type: cell-based, human; conditions: A549 cells, 0.1, 0.3 and 1 µM, erlotinib for comparison
Method: as §3, §4, §5

EGFR^T790M = target: T1, EGFR^T790M (Homo sapiens, UniProt P00533, T790M); test: EGFR^T790M kinase inhibitory assay (HTRF); assay type: biochemical; conditions: ATP 1.65 µM, mean ± S.D of three experiments, read-out: EGFR^790M IC50
T1 construct: purchased Sigma
Method: This test used HTRF[44] assay with EGFR^WT and EGFR^T790M (Sigma). For the first 5 minutes, the evaluated compounds were incubated with EGFR^WT and/or EGFR^T790M and their substrates in the enzymatic buffer. […] The assay was performed at 37 °C for 30 minutes. The addition of EDTA-containing detection reagents halted the process. After one hour detection period, GraphPad Prism 5.0 was used to calculate the IC50 values. For each concentration, three separate trials were carried out.

caspase-3 = test: Caspase-3 determination (ELISA) in HepG-2 cells; assay type: cell-based, human; conditions: HepG-2, 3.02 µM, 24 hours
Method: Caspase-3 activation was measured using a Caspase-3 ELISA Kit (KHO1091).

MCF-7 [3] = test: MTT anti-proliferative assay, MCF-7
Method: The anti-proliferative activity was quantified in the following way. At a density of 3–8 × 10^3 cells per well, human cancer cell lines were introduced to 96-well plates. The wells were then incubated at 37 °C for 12 hours in 5% CO2 incubator. To determine the DMSO content, the culture media was swapped with 0.1 ml of fresh medium containing graded amounts of the test compounds for each well. Incubation time for the wells was two days. The cells were then cultured in 100 µl MTT solution (5 µg ml^−1) for another 4 hours in each well.
The absorbance of each well was measured at 490 nm with an automated ELISA reader system (TECAN, CHE) after MTT-formazan crystals were dissolved in 100 µl of DMSO. The IC50 values were calculated using nonlinear regression fitting models (Graph Pad, Prism Version 5). The results were expressed as means ± SD and were based on the average of three separate, duplicate trials.

HepG-2 [4] = test: DNA-flow cytometric cell cycle analysis, HepG-2; assay type: cell-based, human; conditions: 3.02 µM, 24 hours
Method: as §1, §2

T1 sequence (P00533 25-1210 T790M): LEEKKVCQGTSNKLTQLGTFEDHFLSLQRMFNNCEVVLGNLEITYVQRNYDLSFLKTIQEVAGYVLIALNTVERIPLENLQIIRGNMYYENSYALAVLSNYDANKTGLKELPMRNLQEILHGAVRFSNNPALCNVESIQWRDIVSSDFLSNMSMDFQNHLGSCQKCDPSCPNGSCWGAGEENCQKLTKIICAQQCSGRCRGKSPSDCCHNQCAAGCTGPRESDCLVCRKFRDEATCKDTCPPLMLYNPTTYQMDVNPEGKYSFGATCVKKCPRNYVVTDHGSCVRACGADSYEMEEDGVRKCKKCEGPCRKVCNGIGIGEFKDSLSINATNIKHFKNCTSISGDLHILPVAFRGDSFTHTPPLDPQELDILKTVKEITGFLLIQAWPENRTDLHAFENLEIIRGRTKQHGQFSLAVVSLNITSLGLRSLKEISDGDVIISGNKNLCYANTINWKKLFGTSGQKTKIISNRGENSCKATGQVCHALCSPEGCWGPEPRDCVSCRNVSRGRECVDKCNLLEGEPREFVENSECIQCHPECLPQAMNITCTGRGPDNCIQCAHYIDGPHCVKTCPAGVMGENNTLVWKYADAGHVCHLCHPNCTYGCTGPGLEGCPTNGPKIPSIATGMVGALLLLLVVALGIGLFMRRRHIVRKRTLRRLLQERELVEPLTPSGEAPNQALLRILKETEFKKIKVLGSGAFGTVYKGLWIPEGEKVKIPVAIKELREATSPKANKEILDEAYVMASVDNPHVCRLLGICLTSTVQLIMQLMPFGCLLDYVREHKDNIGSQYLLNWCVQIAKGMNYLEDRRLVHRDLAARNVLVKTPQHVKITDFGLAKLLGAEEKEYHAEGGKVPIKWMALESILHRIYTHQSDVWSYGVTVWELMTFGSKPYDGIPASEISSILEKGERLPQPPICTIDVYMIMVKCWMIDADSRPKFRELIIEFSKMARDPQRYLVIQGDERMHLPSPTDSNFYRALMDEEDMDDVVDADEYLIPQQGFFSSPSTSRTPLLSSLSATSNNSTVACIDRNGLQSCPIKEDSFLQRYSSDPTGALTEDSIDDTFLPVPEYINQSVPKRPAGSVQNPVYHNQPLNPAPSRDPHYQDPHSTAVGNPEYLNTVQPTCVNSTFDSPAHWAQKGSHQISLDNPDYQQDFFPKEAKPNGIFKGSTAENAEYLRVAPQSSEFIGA

## Cn1c(=O)c(C(=O)NNCCOCCOCC(=O)Nc2cccc3c2C(=O)N(C2CCC(=O)NC2=O)C3=O)nc2ccccc21 (stereo not shown) [Compound 16, N-(2-(2,6-dioxopiperidin-3-yl)-1,3-dioxoisoindolin-4-yl)-2-(2-(2-(2-(4-methyl-3-oxo-3,4-dihydroquinoxaline-2-carbonyl) hydrazinyl)ethoxy)ethoxy) acetamide]
HepG-2 [1]
  cellular apoptosis, early and late, folds vs control, HepG-2: ~13 folds
  early apoptosis ratio, HepG-2: 7.55%
  late apoptosis ratio, HepG-2: 5.53%
MCF-7 [2]
  fold increase of cells in G2-M phase vs control, MCF-7: 1.53 fold
  fold increase of cells in pre-G1 phase vs control, MCF-7: 4.39 fold
Akt phosphorylation
  inhibition of Akt phosphorylation, in words: effectively displayed inhibitory activity; also recorded: comparable to erlotinib
EGFR phosphorylation
  inhibition of EGFR phosphorylation, in words: effectively displayed inhibitory activity
EGFR^T790M
  IC50: 4.02 ± 0.19 µM
caspase-3
  increase of caspase-3 level vs control cells: 6.31 fold
MCF-7 [3]; Homo sapiens, MCF7, read-out: IC50 MCF-7
  IC50: 3.92 ± 0.19 µM
MCF-7 [3]; ratio of cytotoxic IC50 to erlotinib
  folds more active than erlotinib, MCF-7: 5.55 folds
HepG-2 [4]
  fold increase of cells in G2-M phase vs control, HepG-2: 1.61 fold
  fold increase of cells in pre-G1 phase vs control, HepG-2: 6.76 fold
